Experimental findings from ChEMBL document CHEMBL1201862, “PubChem BioAssay data set” (2004) are described below.

Common to all, as to test: inhibition of tumour cell growth, NCI panel, 48 h
Experiment [1] deals with IGROV-1.
Experiment [2] deals with M14.
Experiment [3] relates to HOP-92.
Experiment [4] relates to SK-MEL-2.
For experiment [5], the system named is SW-620.
The test system of experiment [6] is HOP-62.
In experiment [7] the test system is CCRF-CEM.
Experiment [8] concerns NCI-H226.
Experiment [9] deals with K562.
For experiment [10], the system named is OVCAR-5.
Experiment [11] relates to OVCAR-8.
The subject of experiment [12] is SK-MEL-5.
Experiment [13] deals with UO-31.
The subject of experiment [14] is HCT-15.
Experiment [15] has as its system LOX IMVI.
Experiment [16] deals with SK-OV-3.
In experiment [17] the test system is COLO 205.

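All cell lines were grown in 96-well plates and treated with compound for 48 hours. At the GI50, growth is halved.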 Active and inactive are the calls of the source. No stated cut-off is given here; in the data, active = GI50 up to about 1.1 µM and inactive = higher.

For the compound `CC(=O)Nc1ccc(/C=N\N2C(=O)c3ccccc3C2=O)cc1`, the GI50 in experiment [1], in experiment [2], in experiment [3], in experiment [4], in [5] and in experiment [6] was > 100 µM (inactive) each time. The GI50 in experiment [7], in experiment [8], in experiment [9], in experiment [10], in experiment [11] and in experiment [12] was > 100 µM (inactive) throughout. Also, the GI50 in [13] is > 100 µM (inactive); in [14], over 100 µM; in [15], > 100 µM (inactive).
For `O=C(O)C1CCc2nnc(-c3ccccc3)n21` (stereo not drawn), the GI50 in experiment [1], in experiment [2], in [4], in experiment [5], in experiment [6] and in experiment [7] was > 100 µM (inactive) each time. Besides, the GI50 in experiment [8], in [9], in experiment [11], in experiment [16], in experiment [12] and in [17] was > 100 µM (inactive) throughout. Further, the GI50 was > 100 µM (inactive) in [13] and over 100 µM in experiment [14].
On to `O=C1c2ccccc2C(=O)N1CCN(CCN1C(=O)c2ccccc2C1=O)Cc1ccccc1`, for which the GI50 was > 100 µM (inactive) in experiment [2]; 68.2 µM (inactive) in experiment [3]; > 100 µM (inactive) in [4]; > 100 µM (inactive) in experiment [5]; > 100 µM (inactive) in [6]; > 100 µM (inactive) in experiment [7]. Also, the GI50 in experiment [9], in [11], in experiment [16], in experiment [12], in experiment [17] and in [13] was > 100 µM (inactive) each time. In addition, the figures for the GI50 in experiment [14] and in [15] were over 100 µM and > 100 µM (inactive), respectively.
Consider `Cc1cccc(NC(=O)/C(=N\NC(C)(C)C)C2NC(=S)NC2=O)c1C` (stereo not drawn), for which the GI50 in experiment [1], in experiment [2], in experiment [4], in experiment [5], in [6] and in experiment [7] was > 100 µM (inactive) throughout. Further, the GI50 in experiment [9], in experiment [10], in [11], in experiment [16], in experiment [12] and in experiment [17] was > 100 µM (inactive) each time. For the same compound, the GI50 in experiment [13] is > 100 µM (inactive); in experiment [14], over 100 µM.
On to `C=C(/C=C/C=C(\CO)CCC=C(C)C)[C@H]1CCC2([C@H](CCCO)/C(=C(/C)C=O)CC[C@]2(C)O)[C@H]1O` (stereo partly drawn), for which the GI50 in [1] is > 100 µM (inactive); in experiment [2], > 100 µM (inactive); in experiment [3], 3.56 µM (inactive); in experiment [4] it was > 100 µM (inactive); in experiment [5], > 100 µM (inactive); in [6], 75.9 µM (inactive). The GI50 in experiment [7] is 38.2 µM (inactive); in experiment [9], 51.4 µM (inactive); in experiment [10] it was > 100 µM (inactive); in [11], > 100 µM (inactive); in experiment [16] it was > 100 µM (inactive); in experiment [12], > 100 µM (inactive). In addition, the results for the GI50 in experiment [17], in experiment [14] and in experiment [15] were 26.3 µM (inactive), over 100 µM and 54.2 µM (inactive), respectively.
Consider `COc1ccccc1-n1c(NN)nc2ccc(Br)cc2c1=O`, for which the GI50 in experiment [1] is 38.2 µM (inactive); in [2], 40.6 µM (inactive); in [4], 44.4 µM (inactive); in [5], 53 µM (inactive); in experiment [6], 28.8 µM (inactive); in [7], 23.7 µM (inactive). For the same compound, the GI50 is 31 µM (inactive) in experiment [8]; 35.6 µM (inactive) in experiment [9]; 18.2 µM (inactive) in experiment [10]; 34 µM (inactive) in experiment [11]; 26.5 µM (inactive) in experiment [16]; 19.3 µM (inactive) in [12]. The GI50 in experiment [17] is 45.9 µM (inactive); in experiment [13] it was 35.1 µM (inactive); in [14], 35.6 µM; in experiment [15], 27.9 µM (inactive).
As for `COC1OC(CO)C(O)C(OC(C)=O)C1NC(=O)N(CCCl)N=O` (stereo not drawn), the GI50 in [1] is > 100 µM (inactive); in experiment [2] it was > 100 µM (inactive); in experiment [4], 0.0112 µM (active); in experiment [5] it was > 100 µM (inactive); in experiment [7], > 100 µM (inactive); in experiment [8] it was > 100 µM (inactive). Also, the GI50 in experiment [9], in experiment [10], in experiment [11], in [16], in [12] and in experiment [17] was > 100 µM (inactive) throughout. Besides, the GI50 in experiment [15] is 55 µM (inactive).
As for `COc1ccc2ccccc2c1C1OC(=O)c2ccccc21` (stereo not drawn), the GI50 in experiment [1] is > 100 µM (inactive); in experiment [2] it was > 100 µM (inactive); in experiment [3], > 100 µM (inactive); in experiment [5], 87.9 µM (inactive); in [6] it was > 100 µM (inactive); in experiment [7] it was > 100 µM (inactive). The GI50 in [8] is > 100 µM (inactive); in [9] it was 33 µM (inactive); in [10], > 100 µM (inactive); in experiment [11], > 100 µM (inactive); in experiment [16], > 100 µM (inactive); in experiment [12], > 100 µM (inactive). Besides, the GI50 is > 100 µM (inactive) in [17], 68.2 µM (inactive) in experiment [13], over 100 µM in experiment [14] and > 100 µM (inactive) in [15].
`Cc1nnc2n1N=C(c1ccccc1)C(c1ccccc1)S2` (stereo not drawn): the GI50 in [1] was 97.5 µM (inactive); in [2], 16.3 µM (inactive); in [3] it was 60.4 µM (inactive); in [4], 29.9 µM (inactive); in experiment [5] it was 11.2 µM (inactive); in experiment [6], 72.3 µM (inactive). The GI50 in [7] is 19.3 µM (inactive); in experiment [9], 31.8 µM (inactive); in [10], > 100 µM (inactive); in experiment [11], 39.4 µM (inactive); in [16] it was 27.2 µM (inactive); in experiment [12], 48.9 µM (inactive). Further, the GI50 is 21.3 µM (inactive) in experiment [17], 51.3 µM (inactive) in experiment [13], 26.2 µM in [14] and 45.2 µM (inactive) in experiment [15].
On to `O=C1Nc2ccc([N+](=O)[O-])cc2/C1=N/Nc1ccc([N+](=O)[O-])cc1`, for which the GI50 is 48.2 µM (inactive) in experiment [1]; 15.8 µM (inactive) in [2]; 9.08 µM (inactive) in experiment [3]; 30.1 µM (inactive) in [4]; 12.5 µM (inactive) in experiment [5]; 18.3 µM (inactive) in experiment [6]. In addition, the GI50 in [7] is 72.1 µM (inactive); in experiment [8] it was 2.72 µM (inactive); in experiment [9], 26.9 µM (inactive); in experiment [11], 13.8 µM (inactive); in experiment [16], 22.2 µM (inactive); in [12], 12.2 µM (inactive). Moreover, the GI50 is 34.7 µM (inactive) in experiment [17], 26.5 µM (inactive) in [13], 21.4 µM in [14] and 27.5 µM (inactive) in experiment [15].
In the case of `CC1(C)CC23C(=O)N(c4ccccc4)C(Nc4ccccc4)=NC2=CC(C#N)=C(C#N)C3O1` (stereo not drawn), the GI50 in experiment [1] is > 100 µM (inactive); in experiment [2], > 100 µM (inactive); in experiment [3] it was 11.2 µM (inactive); in experiment [4] it was 61.5 µM (inactive); in [5], 37.7 µM (inactive); in experiment [6], 82 µM (inactive). The GI50 is 48.6 µM (inactive) in experiment [7]; 26.4 µM (inactive) in [8]; 72.4 µM (inactive) in [9]; > 100 µM (inactive) in experiment [10]; 99.5 µM (inactive) in [11]; 28.1 µM (inactive) in experiment [12]. For the same compound, the GI50 in experiment [17] is 39.9 µM (inactive); in experiment [13] it was 18.6 µM (inactive); in experiment [14] it was 64.9 µM; in experiment [15], 64.4 µM (inactive).
For the compound `Cc1ccccc1NC(=O)C(=O)CC(=O)c1c(C)[n+]([O-])c2ccccc2[n+]1[O-]`, the GI50 in experiment [1], in [2], in [4], in experiment [5], in experiment [6] and in experiment [8] was > 100 µM (inactive) in each case. Also, the GI50 in [9], in [10], in [11], in experiment [16], in [17] and in [13] was > 100 µM (inactive) each time. In experiment [14], this compound registered a GI50 of over 100 µM.
For the compound `O=S(O)CCCCSSCCCCSSCCCCS(=O)O`, the GI50 in experiment [1] was > 100 µM (inactive); in [2], 11.2 µM (inactive); in [4] it was 24.9 µM (inactive); in experiment [5] it was 24.4 µM (inactive); in experiment [7], 5.9 µM (inactive); in [9], 15 µM (inactive). In addition, the GI50 was > 100 µM (inactive) in [10]; 18.9 µM (inactive) in [11]; > 100 µM (inactive) in experiment [16]; 10.7 µM (inactive) in [12]; 22.6 µM (inactive) in [17]; 29 µM (inactive) in experiment [13]. In addition, the GI50 in experiment [14] was 42.7 µM; in experiment [15], 12.8 µM (inactive).
`CCN1CC2(C)CC[C@@H](OC)C34[C@@H]2[C@H](OC(C)=O)C2(OCO[C@@]25C[C@H](OC)C2C[C@]3(O)[C@@H]5[C@H]2O)[C@H]14`: the GI50 in experiment [2] was > 100 µM (inactive); in [3], > 100 µM (inactive); in experiment [4], > 100 µM (inactive); in [5], > 100 µM (inactive); in experiment [6] it was 82.6 µM (inactive); in experiment [8], > 100 µM (inactive). The GI50 in experiment [10], in experiment [11], in [17], in experiment [13] and in experiment [15] was > 100 µM (inactive) throughout.
